Data on eight compounds can be found in US20080182851A1, “ACETYLENE DERIVATIVES AS STEAROYL COA DESATURASE INHIBITORS” (Glenmark Pharmaceuticals S.A., priority 2006, published 2008).

Molecules are shown by their SMILES.

For the test, the target named is T1, human SCD1 enzyme (Homo sapiens, UniProt O00767).
T1 sequence (O00767 1-359): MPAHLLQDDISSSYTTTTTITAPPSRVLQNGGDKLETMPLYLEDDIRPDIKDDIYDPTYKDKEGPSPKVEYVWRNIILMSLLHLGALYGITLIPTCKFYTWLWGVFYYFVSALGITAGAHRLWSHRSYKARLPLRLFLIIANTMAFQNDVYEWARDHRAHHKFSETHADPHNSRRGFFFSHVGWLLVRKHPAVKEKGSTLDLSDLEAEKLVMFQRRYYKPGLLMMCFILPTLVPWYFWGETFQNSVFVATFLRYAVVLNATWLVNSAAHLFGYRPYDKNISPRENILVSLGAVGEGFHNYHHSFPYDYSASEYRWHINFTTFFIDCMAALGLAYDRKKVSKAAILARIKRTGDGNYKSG
As to the kind of experiment: Tritiated water release assay (conversion of radiolabeled stearoyl-CoA to oleoyl-CoA). Format: biochemical. The settings on record: 10 μM concentration of test compounds; microsomal SCD1, 3H stearoyl CoA, 37° C. 30 minutes; percent of control reaction; read-out: % Inhibition.
For the compound `CC(=O)Nc1cccc(C#Cc2ccc(N3CCN(C(=O)c4ccccc4C(F)(F)F)CC3)nc2)c1` [Example 36, N1-[3-(2-{6-[4-(2-Trifluoromethylbenzoyl)piperazino]-3-pyridyl}-1-ethynyl)phenyl]acetamide], the inhibition at 10 µM was 23%. Consider `CC(=O)Oc1ccc(C#Cc2ccc(N3CCN(C(=O)c4ccccc4C(F)(F)F)CC3)nc2)cc1` [Example 22], for which the inhibition at 10 µM stood at 84%. In the case of `Oc1cccc(C#Cc2ccc(N3CCN(CC4CC4)CC3)nn2)c1` [Example 55, 3-({6-[4-(Cyclopropylmethyl)piperazin-1-yl]pyridazin-3-yl}ethynyl)phenol], the inhibition at 10 µM turned out to be 60%. As to `O=C(c1cc(Cl)ccc1Cl)N1CCN(c2ccc(C#Cc3cnccn3)cn2)CC1` [Example 46], the inhibition at 10 µM came to 29%. In the case of `Fc1ccccc1OC1CCN(c2ccc(C#Cc3ccc(C(F)(F)F)cc3)nn2)CC1` [Example 84, 3-[4-(2-Fluorophenoxy)piperidino]-6-[2-(4-trifluoromethylphenyl)-1-ethynyl]pyridazine], the inhibition at 10 µM is 37%. Next, `CCCCn1ccnc1C#Cc1ccc(N2CCN(C(=O)c3ccccc3C(F)(F)F)CC2)nc1` [Example 47, 4-{5-[2-(1-Butyl-1H-2-imidazolyl)-1-ethynyl]-2-pyridyl}piperazino-2-trifluoromethyl-phenylmethanone]: 33%; `Fc1ccccc1OC1CCN(c2ccc(C#Cc3ccc(OCCN4CCCCC4)cc3)nn2)CC1` [Example 78]: 43%.

Take `Oc1ccc(C#Cc2ccc(N3CC(Oc4ccccc4F)C3)nn2)cc1` [Example 67]: the inhibition at 10 µM came out at 96%.

In general, inhibition refers to how much of the control response was suppressed.
